According to patent US7772246B2 (Pfizer Inc., priority 2007, dated 2010):

Molecular target: T1, b-Raf (Homo sapiens, UniProt P15056, V600E)
T1 construct: endogenous in cells; host or cells: A2058 human melanoma cells
Test: Raf cellular assay (phospho-Mek1/2 ELISA in A2058 cells)
Format: cell-based
Settings: Table 3; human melanoma A2058 cells (b-Raf mutation), Mek1/2 Ser217/221 phosphorylation, 1 hour incubation; read-out: pMEK IC50
Method: Compounds of the present invention were evaluated for potency against b-Raf using a cellular assay as follows. The activity of Raf kinases in cells is determined by measuring the level of phosphorylation of Mek1/2 at serine 217/221, the site phosphorylated by Raf kinases in vivo. Mek1/2 Ser phosphorylation is measured using anti-phospho-Mek1/2 antibodies (Cell Signaling #9121) in an ELISA format.
Healthy growing human melanoma A2058 cells (harboring a b-Raf mutation) are used for the assay. A2058 cells are grown in 10% FBS DMEM medium. When the cells are near 85%+confluence, the cells are rinsed with PBS once and trypsinized with trypsin/EDTA for 3 minutes. The cells are resuspended in 10% FBS DMEM and are centrifuged down at 1000 rpm for 5 minutes. The cells are resuspended in 10% FBS DMEM and counted on a cell counter. The cells are seeded at 50,000 cells/well in a volume of 100 μL/well in 10% FBS DMEM in a 96 well flat-bottom plate. The negative control wells receive only 100 μL of 10% FBS DMEM medium without cells. The plate is incubated overnight in a cell culture incubator with 5% CO2 at 37° C.
On day 2, testing compounds are prepared in 10% FBS DMEM medium and serially diluted at 1:3 for 11 test concentrations. Each concentration of the compounds is tested in duplicate. The compound solutions are added at 25 μL/well to the corresponding wells in the cell plate, and 25 μL/well of the vehicle (0.5% DMSO in 10% FBS DMEM) is added to the negative control wells (no cells) and the positive control wells (cells without compounds). The plate is incubated for 1 hour in a cell culture incubator with 5% CO2 at 37° C. After 1 hour of incubation, the medium is removed, 100 μL/well of cell lysis buffer is added into the cell plate, and the plate is shaken for 15 minutes at room temperature. After 15 minutes, the cell lysates are transferred to an ELISA plate (pre-coated with anti-Mek1 anti-body, Cell Signaling #2352), and the plate is incubated with gentle shaking for 2 hours at room temperature. After 2 hours, the contents of the wells are aspirated and the wells are washed 4 times with wash buffer. 100 μL of phospho-Mek1/2 detection antibody (Cell Signaling #9121) is added into each well and the plate is incubated with gentle shaking for 1 hour at room temperature. After 1 hour, the wells are aspirated and washed 4 times with wash buffer. 100 μL of anti-rabbit IgG HRP-linked antibody (Cell Signaling #7074) is added to each well, and the plate is incubated with gentle shaking for 1 hour at room temperature. After 1 hour, the contents of the wells are aspirated and the wells are washed 4 times with wash buffer. 100 μL of TMB substrate solution (Sigma #T0440) is added into each well, and the plate is incubated with gentle shaking at room temperature for 10 to 20 minutes. After color development, 100 μL of stop solution (1N hydrochloric acid) is added to each well to terminate color development. The plate is read at 450 nm on an ELISA plate reader.

T1 sequence (P15056 whole entry V600E): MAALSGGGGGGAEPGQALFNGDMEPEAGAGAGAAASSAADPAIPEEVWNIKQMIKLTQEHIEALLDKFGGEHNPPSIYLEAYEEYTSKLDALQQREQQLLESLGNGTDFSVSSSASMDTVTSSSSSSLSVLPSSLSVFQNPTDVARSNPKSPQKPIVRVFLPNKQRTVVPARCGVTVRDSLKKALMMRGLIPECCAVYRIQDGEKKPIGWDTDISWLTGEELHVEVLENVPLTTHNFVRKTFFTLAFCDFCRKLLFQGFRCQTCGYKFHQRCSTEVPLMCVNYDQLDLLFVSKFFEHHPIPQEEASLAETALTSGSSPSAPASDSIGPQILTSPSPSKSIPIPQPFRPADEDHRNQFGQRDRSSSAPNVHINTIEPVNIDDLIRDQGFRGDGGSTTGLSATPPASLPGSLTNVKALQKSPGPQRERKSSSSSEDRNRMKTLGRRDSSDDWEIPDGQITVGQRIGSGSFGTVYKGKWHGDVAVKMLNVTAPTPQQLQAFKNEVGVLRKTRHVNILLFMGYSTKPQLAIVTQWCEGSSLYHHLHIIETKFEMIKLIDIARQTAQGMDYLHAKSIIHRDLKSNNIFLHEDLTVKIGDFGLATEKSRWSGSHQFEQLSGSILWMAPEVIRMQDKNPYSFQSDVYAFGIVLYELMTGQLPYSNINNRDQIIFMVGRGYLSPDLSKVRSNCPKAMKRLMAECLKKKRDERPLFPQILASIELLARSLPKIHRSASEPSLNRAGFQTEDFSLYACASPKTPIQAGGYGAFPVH

SMILES | IC50
CC(C)n1cc(-c2ccnc(NCCC#N)n2)c(-c2cnc3[nH]ccc3c2)n1 [Example B-50, 3-({4-[1-isopropyl-3-(1H-pyrrolo[2,3-b]pyridin-5-yl)-1H-pyrazol-4-yl]pyrimidin-2-yl}amino)-propanenitrile] | 7.29 nM
C[C@H](O)CNc1nccc(-c2cn(CC(F)F)nc2-c2cnc3[nH]cc(Cl)c3c2)n1 [Example B-96, (2S)-1-({4-[3-(3-chloro-1H-pyrrolo[2,3-b]pyridin-5-yl)-1-(2,2-difluoroethyl)-1H-pyrazol-4-yl]pyrimidin-2-yl}amino)propan-2-ol] | 14.1 nM
CC(C)n1cc(-c2ccnc(NC[C@H](C)O)n2)c(-c2cnc3[nH]cc(Cl)c3n2)n1 [Example I-2, (2S)-1-({4-[3-(7-chloro-5H-pyrrolo[2,3-b]pyrazin-2-yl)-1-isopropyl-1H-pyrazol-4-yl]pyrimidin-2-yl}amino)propan-2-ol] | 20 nM
CC(C)n1cc(-c2ccnc(N)n2)c(-c2cnc3[nH]cc(Cl)c3c2)n1 [Example B-60, 4-[3-(3-chloro-1H-pyrrolo[2,3-b]pyridin-5-yl)-1-isopropyl-1H-pyrazol-4-yl]pyrimidin-2-amine] | 44 nM
C[C@H](O)CNc1nccc(-c2cn(CC(F)F)nc2-c2ccnc3[nH]ccc23)n1 [Example B-29, (2S)-1-({4-[1-(2,2-difluoroethyl)-3-(1H-pyrrolo[2,3-b]pyridin-4-yl)-1H-pyrazol-4-yl]pyrimidin-2-yl}amino)propan-2-ol] | 9390 nM
CC(C)n1cc(-c2ccnc(N)c2)c(-c2cnc3[nH]cc(Cl)c3c2)n1 [Example H-1, 4-(3-(3-chloro-1H-pyrrolo[2,3-b]pyridin-5-yl)-1-isopropyl-1H-pyrazol-4-yl)pyridin-2-amine] | 26 nM
CC(C)(CO)n1cc(-c2ccnc(NCCC#N)n2)c(-c2cnc3[nH]ccc3c2)n1 [Example B-25, 3-({4-[1-(2-hydroxy-1,1-dimethylethyl)-3-(1H-pyrrolo[2,3-b]pyridin-5-yl)-1H-pyrazol-4-yl]pyrimidin-2-yl}amino)propanenitrile] | 5.98 nM
Cc1c[nH]c2ncc(-c3nn(C(C)(C)CO)cc3-c3ccnc(N)n3)cc12 [Example B-58, 2-[4-(2-aminopyrimidin-4-yl)-3-(3-methyl-1H-pyrrolo[2,3-b]pyridin-5-yl)-1H-pyrazol-1-yl]-2-methylpropan-1-ol] | 9.86 nM
COc1cc(-c2nn(CC(F)F)cc2-c2ccnc(NC[C@H](C)O)n2)cnc1N [Example B-104, (2S)-({4-[3-(6-amino-5-methoxypyridin-3-yl)-1-(2,2-difluoroethyl)-1H-pyrazol-4-yl]pyrimidin-2-yl}amino)propan-2-ol] | 9.62 nM
N#CCCNc1nccc(-c2cn(CC(F)F)nc2-c2cnc3c(c2)CCN3)n1 [Example B-88, 3-(4-(1-(2,2-difluoroethyl)-3-(2,3-dihydro-1H-pyrrolo[2,3-b]pyridin-5-yl)-1H-pyrazol-4-yl)pyrimidin-2-ylamino)propanenitrile] | 6.93 nM
COc1nc(-c2nn(C(C)C)cc2-c2ccnc(NCCC#N)n2)cnc1N [Example B-31, 3-({4-[3-(5-amino-6-methoxypyrazin-2-yl)-1-isopropyl-1H-pyrazol-4-yl]pyrimidin-2-yl}amino)propanenitrile] | 0.5 nM
COc1cc(-c2nn(C(F)F)cc2-c2ccnc(NC[C@H](C)O)n2)cnc1N [Example B-41, (2S)-1-({4-[3-(6-amino-5-methoxypyridin-3-yl)-1-(difluoromethyl)-1H-pyrazol-4-yl]pyrimidin-2-yl}amino)propan-2-ol] | 78.5 nM
Cc1n[nH]c2ncc(-c3nn(CC(F)F)cc3-c3ccnc(NCCC#N)n3)cc12 [Example B-91, 3-(4-(1-(2,2-difluoroethyl)-3-(3-methyl-1H-pyrazolo[3,4-b]pyridin-5-yl)-1H-pyrazol-4-yl)pyrimidin-2-ylamino)propanenitrile] | 4.94 nM

Continued by falling IC50, values first:

IC50 | SMILES
5650 nM | CC(C)n1cc(-c2ccnc(NC[C@H](C)O)n2)c(-c2cnc(N)nc2)n1 [Example B-42, (2S)-1-({4-[3-(2-aminopyrimidin-5-yl)-1-isopropyl-1H-pyrazol-4-yl]pyrimidin-2-yl}amino)propan-2-ol]
1320 nM | CC(C)n1cc(-c2ccnc(NCCC#N)n2)c(-c2cccnc2)n1 [Example B-53, 3-{[4-(1-isopropyl-3-pyridin-3-yl-1H-pyrazol-4-yl)pyrimidin-2-yl]amino}-propanenitrile]
1020 nM | CC(C)n1cc(-c2ccnc(N)c2)c(-c2cnc3[nH]ccc3c2)n1 [Example H-2, 4-(1-isopropyl-3-(1H-pyrrolo[2,3-b]pyridin-5-yl)-1H-pyrazol-4-yl)pyridin-2-amine]
83.3 nM | COc1cc(-c2nn(C3CC3)cc2-c2ccnc(N)n2)cnc1N [Example B-56, 4-[3-(6-amino-5-methoxypyridin-3-yl)-1-cyclopropyl-1H-pyrazol-4-yl]pyrimidin-2-amine]
44 nM | Cn1ccc2ncc(-c3nn(C(C)(C)CO)cc3-c3ccnc(NCCC#N)n3)cc21 [Example B-37, 3-({4-[1-(2-hydroxy-1,1-dimethylethyl)-3-(1-methyl-1H-pyrrolo[3,2-b]pyridin-6-yl)-1H-pyrazol-4-yl]pyrimidin-2-yl}amino)propanenitrile]
43.7 nM | Nc1nccc(-c2cn(C3CCNCC3)nc2-c2cnc3[nH]cc(Cl)c3c2)n1 [Example B-63, 4-[3-(3-chloro-1H-pyrrolo[2,3-b]pyridin-5-yl)-1-piperidin-4-yl-1H-pyrazol-4-yl]pyrimidin-2-amine]
43.4 nM | FC(F)CNc1nccc(-c2cn(CC(F)F)nc2-c2cnc3c(c2)CCN3)n1 [Example B-90, N-(2,2-difluoroethyl)-4-(1-(2,2-difluoroethyl)-3-(2,3-dihydro-1H-pyrrolo[2,3-b]pyridin-5-yl)-1H-pyrazol-4-yl)pyrimidin-2-amine]
25.6 nM | COc1cc(-c2n[nH]cc2-c2ccnc(NCC(F)F)n2)cnc1N [Example B-68, 4-[3-(6-amino-5-methoxypyridin-3-yl)-1H-pyrazol-4-yl]-N-(2,2-difluoroethyl)-pyrimidin-2-amine]
16.3 nM | C[C@H](O)CNc1nccc(-c2cn(C3CCOC3)nc2-c2cnc3[nH]cc(Cl)c3c2)n1 (stereo partly drawn) [Example G-1, (2S)-1-(4-(3-(3-chloro-1H-pyrrolo[2,3-b]pyridin-5-yl)-1-(tetrahydrofuran-3-yl)-1H-pyrazol-4-yl)pyrimidin-2-ylamino)propan-2-ol]
11.2 nM | Cc1c[nH]c2ncc(-c3nn(CC(F)F)cc3-c3ccnc(N)n3)cc12 [Example B-108, 4-[1-(2,2-difluoroethyl)-3-(3-methyl-1H-pyrrolo[2,3-b]pyridin-5-yl)-1H-pyrazol-4-yl]pyrimidin-2-amine]
10.5 nM | OCCNc1nccc(-c2cn(CC(F)F)nc2-c2cnc3[nH]cc(Cl)c3c2)n1 [Example B-106, 2-({4-[3-(3-chloro-1H-pyrrolo[2,3-b]pyridin-5-yl)-1-(2,2-difluoroethyl)-1H-pyrazol-4-yl]pyrimidin-2-yl}amino)ethanol]
6.86 nM | COc1cc(-c2nn(C3CC3)cc2-c2ccnc(NCC(F)F)n2)cnc1N [Example B-59, 4-[3-(6-amino-5-methoxypyridin-3-yl)-1-cyclopropyl-1H-pyrazol-4-yl]-N-(2,2-difluoroethyl)pyrimidin-2-amine]
2.71 nM | CC(C)n1cc(-c2ccnc(NCCC#N)n2)c(-c2cnc3[nH]cc(F)c3c2)n1 [Example B-19, 3-({4-[3-(3-fluoro-1H-pyrrolo[2,3-b]pyridin-5-yl)-1-isopropyl-1H-pyrazol-4-yl]pyrimidin-2-yl}amino)propanenitrile]
2.22 nM | CN1CCC(n2cc(-c3ccnc(NCC(F)F)n3)c(-c3cnc4[nH]cc(Cl)c4c3)n2)CC1 [Example B-114, 4-[3-(3-chloro-1H-pyrrolo[2,3-b]pyridin-5-yl)-1-(1-methylpiperidin-4-yl)-1H-pyrazol-4-yl]-N-(2,2-difluoroethyl)pyrimidin-2-amine]
0.627 nM | COc1cc(-c2nn(CC(F)F)cc2-c2ccnc(NCCC#N)n2)cnc1N [Example B-82, 3-(4-(3-(6-amino-5-methoxypyridin-3-yl)-1-(2,2-difluoroethyl)-1H-pyrazol-4-yl)pyrimidin-2-ylamino)propanenitrile]
